Experimental data reported in the supplement of paper PMC10307832.

Experiments:
Assay in all cases: relative viability (nuclei count vs DMSO), 5 days (fraction); higher = more cells survive
Etoposide + Olaparib = compound: COc1cc([C@@H]2c3cc4c(cc3[C@@H](O[C@@H]3O[C@@H]5CO[C@@H](C)O[C@H]5[C@H](O)[C@H]3O)[C@H]3COC(=O)[C@H]23)OCO4)cc(OC)c1O [Etoposide] + O=C(c1cc(Cc2n[nH]c(=O)c3ccccc23)ccc1F)N1CCN(C(=O)C2CC2)CC1 [Olaparib] (partner 8 µM)
Method in brief: (§1)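 Lung cancer cell lines were seeded in 1536-well plates and dosed by pin tool the next day, with either a single drug or a fixed anchor-drug dose combined with five library-drug doses (not always all listed) spaced in √10 steps. Five days later, one step fixed the cells and stained their nuclei (final 0.05% Triton X-100, 1% formaldehyde, 1 ug/ml Hoechst), and nuclei were counted on 4× images. Relative viability is the nuclei count in treated wells divided by the count in vehicle wells, and each value is the median of duplicate plates.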

Etoposide + Pemetrexed = compound: COc1cc([C@@H]2c3cc4c(cc3[C@@H](O[C@@H]3O[C@@H]5CO[C@@H](C)O[C@H]5[C@H](O)[C@H]3O)[C@H]3COC(=O)[C@H]23)OCO4)cc(OC)c1O [Etoposide] + Nc1nc2[nH]cc(CCc3ccc(C(=O)N[C@@H](CCC(=O)O)C(=O)O)cc3)c2c(=O)[nH]1 [Pemetrexed] (partner 0.2 µM)
Method in brief: as §1

Etoposide + Crizotinib = compound: COc1cc([C@@H]2c3cc4c(cc3[C@@H](O[C@@H]3O[C@@H]5CO[C@@H](C)O[C@H]5[C@H](O)[C@H]3O)[C@H]3COC(=O)[C@H]23)OCO4)cc(OC)c1O [Etoposide] + C[C@@H](Oc1cc(-c2cnn(C3CCNCC3)c2)cnc1N)c1c(Cl)ccc(F)c1Cl [Crizotinib] (partner 1 µM)
Method in brief: as §1

Bleomycin + Linsitinib = compound: CC1=C(N=C(N=C1N)[C@H](CC(=O)N)NC[C@@H](C(=O)N)N)C(=O)N[C@@H]([C@H](C2=CN=CN2)OC3C(C(C(C(O3)CO)O)O)OC4C(C(C(C(O4)CO)O)OC(=O)N)O)C(=O)N[C@H](C)[C@H]([C@H](C)C(=O)N[C@@H]([C@@H](C)O)C(=O)NCCC5=NC(=CS5)C6=NC(=CS6)C(=O)NCCC[S+](C)C)O [Bleomycin] + C[C@]1(O)C[C@@H](c2nc(-c3ccc4ccc(-c5ccccc5)nc4c3)c3c(N)nccn32)C1 [Linsitinib] (partner 1 µM); conditions: main component drawn
Method in brief: as §1

Cell Line | relative viability (Etoposide + Olaparib; first compound 0.01 µM) | relative viability (Etoposide + Olaparib; first compound 0.03162 µM) | relative viability (Etoposide + Olaparib; first compound 0.1 µM) | relative viability (Etoposide + Olaparib; first compound 0.3162 µM) | relative viability (Etoposide + Olaparib; first compound 1 µM) | relative viability (Etoposide + Pemetrexed; first compound 0.01 µM) | relative viability (Etoposide + Pemetrexed; first compound 0.03162 µM) | relative viability (Etoposide + Pemetrexed; first compound 0.1 µM) | relative viability (Etoposide + Pemetrexed; first compound 0.3162 µM) | relative viability (Etoposide + Pemetrexed; first compound 1 µM) | relative viability (Etoposide + Crizotinib; first compound 0.01 µM) | relative viability (Etoposide + Crizotinib; first compound 0.03162 µM) | relative viability (Etoposide + Crizotinib; first compound 0.1 µM) | relative viability (Etoposide + Crizotinib; first compound 0.3162 µM) | relative viability (Etoposide + Crizotinib; first compound 1 µM) | relative viability (Bleomycin + Linsitinib; first compound 0.01 µM) | relative viability (Bleomycin + Linsitinib; first compound 0.03162 µM) | relative viability (Bleomycin + Linsitinib; first compound 0.1 µM) | relative viability (Bleomycin + Linsitinib; first compound 0.3162 µM) | relative viability (Bleomycin + Linsitinib; first compound 1 µM)
NCI-H1975 | 0.688 | 1.02 | 0.881 | 0.487 | 0.252 | 0.285 | 0.303 | 0.31 | 0.268 | 0.223 | 0.98 | 1.06 | 1.05 | 0.668 | 0.249 | 0.896 | 0.823 | 0.806 | 0.315 | 0.221
CAL-12T | 0.716 | 0.623 | 0.693 | 0.368 | 0.213 | 1.02 | 1.29 | 1.07 | 0.963 | 0.484 | 0.547 | 0.573 | 0.82 | 0.298 | 0.223 | 0.623 | 0.49 | 0.258 | 0.156 | 0.176
NCI-H1703 | 0.366 | 0.465 | 0.424 | 0.246 | 0.179 |  |  |  |  |  |  | 0.521 | 0.584 | 0.501 | 0.162 | 1.06 | 0.639 | 0.517 | 0.321 | 0.19
Calu-6 | 0.585 | 0.547 | 0.505 | 0.274 | 0.202 |  |  |  |  |  | 0.751 | 0.862 | 0.964 | 0.575 | 0.362 | 0.741 | 0.6 | 0.508 | 0.174 | 0.125
EBC-1 | 0.641 | 0.689 | 0.532 | 0.405 | 0.266 |  |  |  |  |  | 0.189 | 0.202 |  | 0.197 | 0.194 | 0.829 | 0.72 | 0.78 | 0.698 | 0.366
IA-LM | 0.674 | 0.822 | 0.771 | 0.681 | 0.441 |  |  |  |  |  | 0.749 | 1.15 | 0.475 | 0.73 | 0.698 | 0.588 | 0.476 | 0.344 | 0.293 | 0.246
NCI-H1793 |  | 0.861 | 0.608 | 0.454 | 0.295 |  | 0.97 | 0.458 | 0.629 | 0.226 |  |  |  |  |  | 0.943 | 0.762 | 0.719 | 0.276 | 0.249
ChaGo-K-1 | 0.399 | 0.44 | 0.332 | 0.219 | 0.179 | 0.267 | 0.261 | 0.259 | 0.261 | 0.218 | 1.08 | 0.888 | 0.576 | 0.306 | 0.304 |  |  |  |  | 
NCI-H522 | 0.593 | 0.724 | 0.811 | 0.59 | 0.539 | 0.896 | 1.22 | 0.784 | 0.877 | 1 |  |  |  |  |  |  |  |  |  | 
